Test results: PubChem BioAssay (NCI)
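The compound was tested at five concentrations on cells cultured in 96-well plates, with a 48-hour exposure period. TGI: total growth inhibition.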

Assays:
Experiment in all cases: growth of human tumour cells (NCI), 48 h
HCT-15 colon = test system: HCT-15 colon
EKVX NSCLC = test system: EKVX NSCLC
MOLT-4 leukemia = test system: MOLT-4 leukemia
OVCAR-4 ovarian = test system: OVCAR-4 ovarian
DU-145 prostate = test system: DU-145 prostate
HCC-2998 colon = test system: HCC-2998 colon
SNB-19 CNS = test system: SNB-19 CNS
COLO 205 colon = test system: COLO 205 colon
MDA-N = test system: MDA-N
U251 CNS = test system: U251 CNS
UACC-257 melanoma = test system: UACC-257 melanoma
NCI-H522 lung = test system: NCI-H522 lung
SW-620 colon = test system: SW-620 colon
PC-3 prostate = test system: PC-3 prostate
SN12C renal = test system: SN12C renal
HOP-62 NSCLC = test system: HOP-62 NSCLC
MDA-MB-435 = test system: MDA-MB-435
A549 NSCLC = test system: A549 NSCLC
NCI-H23 lung = test system: NCI-H23 lung
SF-539 CNS = test system: SF-539 CNS
SF-268 CNS = test system: SF-268 CNS
RPMI-8226 leukemia = test system: RPMI-8226 leukemia
OVCAR-8 ovarian = test system: OVCAR-8 ovarian
NCI-H460 lung = test system: NCI-H460 lung
SF-295 CNS = test system: SF-295 CNS
HOP-92 NSCLC = test system: HOP-92 NSCLC
IGROV1 ovarian = test system: IGROV1 ovarian
SR leukemia = test system: SR leukemia
OVCAR-3 ovarian = test system: OVCAR-3 ovarian
MALME-3M melanoma = test system: MALME-3M melanoma
OVCAR-5 ovarian = test system: OVCAR-5 ovarian
NCI/ADR-RES ovarian = test system: NCI/ADR-RES ovarian
786-0 renal = test system: 786-0 renal
HCT-116 colon = test system: HCT-116 colon
HT29 colon = test system: HT29 colon
CAKI-1 renal = test system: CAKI-1 renal
MCF7 breast = test system: MCF7 breast
SK-MEL-5 melanoma = test system: SK-MEL-5 melanoma
BT-549 breast = test system: BT-549 breast
A498 renal = test system: A498 renal
LOX IMVI melanoma = test system: LOX IMVI melanoma
HS 578T breast = test system: HS 578T breast
MDA-MB-231 breast = test system: MDA-MB-231 breast
SK-OV-3 ovarian = test system: SK-OV-3 ovarian
RXF 393 renal = test system: RXF 393 renal
M14 melanoma = test system: M14 melanoma
TK-10 renal = test system: TK-10 renal
SK-MEL-28 melanoma = test system: SK-MEL-28 melanoma
UACC-62 melanoma = test system: UACC-62 melanoma
NCI-H226 lung = test system: NCI-H226 lung
HL-60(TB) leukemia = test system: HL-60(TB) leukemia
SK-MEL-2 melanoma = test system: SK-MEL-2 melanoma
ACHN renal = test system: ACHN renal
T-47D breast = test system: T-47D breast
CCRF-CEM leukemia = test system: CCRF-CEM leukemia
SNB-75 CNS = test system: SNB-75 CNS
K-562 leukemia = test system: K-562 leukemia
KM12 colon = test system: KM12 colon
UO-31 renal = test system: UO-31 renal

Measured: TGI

C=CCOc1ccc(C2(c3ccc(OCC=C)cc3)C(=O)Nc3ccccc32)cc1
6.38 µM: HS 578T breast
not listed: UO-31 renal
> 10 µM: all other assays above

COc1ccc(C2C3=C(COC3=O)OC(C)(C)Oc3cc4c(cc32)OCO4)cc1 (configuration not stated)
99.8 µM: SK-MEL-5 melanoma
98.7 µM: UO-31 renal
97 µM: TK-10 renal
> 92.6 µM: NCI-H460 lung
> 72.7 µM: SF-539 CNS
> 61.3 µM: HL-60(TB) leukemia
> 85.4 µM: HCT-116 colon
79 µM: RXF 393 renal
> 86.8 µM: LOX IMVI melanoma
23 µM: SNB-75 CNS
> 69.5 µM: NCI-H522 lung
14.9 µM: MDA-MB-435
99.2 µM: NCI-H226 lung
> 83.8 µM: MOLT-4 leukemia
> 87.4 µM: T-47D breast
48.5 µM: COLO 205 colon
> 65.8 µM: HOP-92 NSCLC
97.9 µM: MDA-MB-231 breast
> 81 µM: KM12 colon
> 81.6 µM: NCI/ADR-RES ovarian
> 92.7 µM: EKVX NSCLC
8.97 µM: MDA-N
> 66.6 µM: UACC-62 melanoma
73.4 µM: PC-3 prostate
> 61.6 µM: K-562 leukemia
85.2 µM: A498 renal
> 86.9 µM: CAKI-1 renal
96.9 µM: HCC-2998 colon
89.3 µM: BT-549 breast
> 100 µM: all other assays above
